Test results published in the supplement of paper PMC10307832.

Legend:
Experiment in all cases: relative viability (nuclei count vs DMSO), 5 days (fraction); higher = more cells survive
NCI-H1915 = tested on: NCI-H1915
Summary of the method: (§1)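 Lung cancer cell lines were pin-tool dosed in 1536-well plates on the day after seeding, with either a lone drug or a fixed anchor-drug dose plus five library-drug doses (not always all listed) in √10 steps. Nuclei were counted on 4× images after 5 days. Relative viability is the ratio of treated-well to vehicle-well nuclei counts, with each value a median of duplicate plates.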

COR-L 105 = tested on: COR-L 105
Summary of the method: as §1

NCI-H1944 = tested on: NCI-H1944
Summary of the method: as §1

HCC-78 = tested on: HCC-78
Summary of the method: as §1

UMC-11 = tested on: UMC-11
Summary of the method: as §1

SK-LU-1 = tested on: SK-LU-1
Summary of the method: as §1

LXF-289 = tested on: LXF-289
Summary of the method: as §1

LC-2-ad = tested on: LC-2-ad
Summary of the method: as §1

NCI-H1793 = tested on: NCI-H1793
Summary of the method: as §1

EPLC-272H = tested on: EPLC-272H
Summary of the method: as §1

NCI-H460 = tested on: NCI-H460
Summary of the method: as §1

A-427 = tested on: A-427
Summary of the method: as §1

NCI-H1792 = tested on: NCI-H1792
Summary of the method: as §1

HOP-62 = tested on: HOP-62
Summary of the method: as §1

NCI-H1975 = tested on: NCI-H1975
Summary of the method: as §1

NCI-H1755 = tested on: NCI-H1755
Summary of the method: as §1

NCI-H358 = tested on: NCI-H358
Summary of the method: as §1

SW 900 = tested on: SW 900
Summary of the method: as §1

LCLC-97TM1 = tested on: LCLC-97TM1
Summary of the method: as §1

NCI-H2170 = tested on: NCI-H2170
Summary of the method: as §1

NCI-H2085 = tested on: NCI-H2085
Summary of the method: as §1

LU99A = tested on: LU99A
Summary of the method: as §1

NCI-H2342 = tested on: NCI-H2342
Summary of the method: as §1

HCC-366 = tested on: HCC-366
Summary of the method: as §1

CC(C)Oc1cc(Nc2nc(N[C@@H](C)c3ccc(F)cn3)ncc2Cl)n[nH]1 [AZ23] + COc1cccc2cc(-c3nc([C@H]4CC[C@H](C(=O)O)CC4)n4ncnc(N)c34)[nH]c12 [OSI-027] (partner 0.5 µM)
relative viability (NCI-H1915; first compound 0.01 µM): 0.664 | relative viability (NCI-H1915; first compound 0.03162 µM): 0.635 | relative viability (NCI-H1915; first compound 0.3162 µM): 0.65 | relative viability (COR-L 105; first compound 0.01 µM): 0.657 | relative viability (COR-L 105; first compound 0.03162 µM): 0.849 | relative viability (COR-L 105; first compound 0.3162 µM): 0.809 | relative viability (NCI-H1944; first compound 0.01 µM): 0.401 | relative viability (NCI-H1944; first compound 0.03162 µM): 0.456 | relative viability (NCI-H1944; first compound 0.3162 µM): 0.498 | relative viability (HCC-78; first compound 0.01 µM): 0.52 | relative viability (HCC-78; first compound 0.03162 µM): 0.349 | relative viability (HCC-78; first compound 0.3162 µM): 0.322 | relative viability (UMC-11; first compound 0.01 µM): 0.429 | relative viability (UMC-11; first compound 0.03162 µM): 0.505 | relative viability (UMC-11; first compound 0.3162 µM): 0.494 | relative viability (SK-LU-1; first compound 0.03162 µM): 0.403 | relative viability (SK-LU-1; first compound 0.3162 µM): 0.379 | relative viability (LXF-289; first compound 0.01 µM): 0.862 | relative viability (LXF-289; first compound 0.03162 µM): 0.857 | relative viability (LXF-289; first compound 0.3162 µM): 0.96 | relative viability (LC-2-ad; first compound 0.01 µM): 0.953 | relative viability (LC-2-ad; first compound 0.03162 µM): 0.802 | relative viability (LC-2-ad; first compound 0.3162 µM): 0.672 | relative viability (NCI-H1793; first compound 0.01 µM): 0.226 | relative viability (NCI-H1793; first compound 0.03162 µM): 0.303 | relative viability (NCI-H1793; first compound 0.3162 µM): 0.28 | relative viability (EPLC-272H; first compound 0.01 µM): 0.238 | relative viability (EPLC-272H; first compound 0.03162 µM): 0.275 | relative viability (EPLC-272H; first compound 0.3162 µM): 0.256 | relative viability (NCI-H460; first compound 0.01 µM): 0.382 | relative viability (NCI-H460; first compound 0.03162 µM): 0.657 | relative viability (NCI-H460; first compound 0.3162 µM): 0.885 | relative viability (A-427; first compound 0.01 µM): 0.37 | relative viability (A-427; first compound 0.03162 µM): 0.448 | relative viability (A-427; first compound 0.3162 µM): 0.34 | relative viability (NCI-H1792; first compound 0.01 µM): 0.752 | relative viability (NCI-H1792; first compound 0.03162 µM): 0.782 | relative viability (NCI-H1792; first compound 0.3162 µM): 0.841 | relative viability (HOP-62; first compound 0.01 µM): 0.853 | relative viability (HOP-62; first compound 0.03162 µM): 0.924 | relative viability (HOP-62; first compound 0.3162 µM): 0.973 | relative viability (NCI-H1975; first compound 0.01 µM): 0.874 | relative viability (NCI-H1975; first compound 0.03162 µM): 0.812 | relative viability (NCI-H1975; first compound 0.3162 µM): 0.727 | relative viability (NCI-H1755; first compound 0.01 µM): 0.639 | relative viability (NCI-H1755; first compound 0.03162 µM): 0.809 | relative viability (NCI-H1755; first compound 0.3162 µM): 0.771 | relative viability (NCI-H358; first compound 0.01 µM): 0.682 | relative viability (NCI-H358; first compound 0.03162 µM): 0.725 | relative viability (NCI-H358; first compound 0.3162 µM): 0.805 | relative viability (SW 900; first compound 0.01 µM): 0.512 | relative viability (SW 900; first compound 0.03162 µM): 0.663 | relative viability (SW 900; first compound 0.3162 µM): 0.579 | relative viability (LCLC-97TM1; first compound 0.01 µM): 0.495 | relative viability (LCLC-97TM1; first compound 0.03162 µM): 0.519 | relative viability (LCLC-97TM1; first compound 0.3162 µM): 0.586 | relative viability (NCI-H2170; first compound 0.01 µM): 0.664 | relative viability (NCI-H2170; first compound 0.03162 µM): 0.722 | relative viability (NCI-H2170; first compound 0.3162 µM): 0.726 | relative viability (NCI-H2085; first compound 0.01 µM): 0.676 | relative viability (NCI-H2085; first compound 0.03162 µM): 0.76 | relative viability (NCI-H2085; first compound 0.3162 µM): 0.659 | relative viability (LU99A; first compound 0.01 µM): 0.264 | relative viability (LU99A; first compound 0.03162 µM): 0.312 | relative viability (LU99A; first compound 0.3162 µM): 0.286 | relative viability (NCI-H2342; first compound 0.01 µM): 0.702 | relative viability (NCI-H2342; first compound 0.03162 µM): 0.593 | relative viability (NCI-H2342; first compound 0.3162 µM): 0.569 | relative viability (HCC-366; first compound 0.01 µM): 1.06 | relative viability (HCC-366; first compound 0.03162 µM): 0.872 | relative viability (HCC-366; first compound 0.3162 µM): 1.05
